Experimental findings from patent US9377453B2, “Systems and methods for detection of cellular stress” (RAMOT AT TEL AVIV UNIVERSITY LTD., priority 2010, dated 2016) are described below.

In the experiment the test system is CHO cells. Kind of experiment: Subcellular localization of Cy3-labeled tRNA in CHO cells treated with puromycin. The note with it: puromycin 1 mM, 0.5 h, 7 h post transfection; treated vs untreated CHO cells. It is filed as cell-based, Chinese hamster. Here is the method: Chinese hamster ovary cells (CHO-Ki) were maintained in nutrient mixture F-12 (Ham) supplemented with 10% (v/v) fetal calf serum, 5 mM L-glutamine and antibiotics (all from Biological Industries).
Transfection—Cells were seeded in the day preceding the transfection (1.5×10^5 cells, 12 mm coverslips, in 24-well plates). Transfection was with 3 μg of yeast labeled-bulk tRNA (Interferin™, polyplus-transfection, according to manufacture's instructions). For DNA transfection (pSuper-retro-GFP), 9×10^4 cells/well were transfected with 1 μg DNA (TransIT-LT1 transfection reagent, according to manufacture's protocol). The following day, cells were re-transfected with labeled tRNA as described above.
Quantitative image analysis—For quantitative analysis of spatial distribution of the labeled tRNA and additional cellular markers, the entire cell volume was imaged by spinning disk confocal microscopy (0.15 μm between planes of the z-stack) with a 100× lens and 1×1 “on chip binning” yielding a pixel size of 100×100 nm; and deconvolved with the constrained iterative algorithm of Slidebook™ which employs an experimentally measured point spread function (PSF). […]

“Also recorded” adds a separate entry of the source.

`COc1ccc(C[C@H](N)C(=O)N[C@H]2[C@@H](O)[C@H](n3cnc4c(N(C)C)ncnc43)O[C@@H]2CO)cc1` [puromycin]: the “Nuclear localization of labeled tRNA (tRNA signal co-localizing with Hoechst signal)” value is listed as “marked accumulation of tRNA in the nucleus; also recorded: increase in nuclear localization of labeled tRNA”.
